Data from ChEMBL document CHEMBL5528003 (Eur J Med Chem, 2024).
Converted amounts (≈) assume the structure as drawn. The source made the active and inactive calls. The rule behind the calls is not given here.

Experiments:
[1] = Cmax in Sprague-Dawley rat at 30 mg/kg, IM measured after 49 days by LC-MS/MS analysis; assay type: ADME, organism-based; conditions: in vivo, time 49 day
[2] = MRT in Sprague-Dawley rat at 30 mg/kg, IM measured after 49 days by LC-MS/MS analysis; assay type: ADME, organism-based; conditions: in vivo, time 49 day
[3] = Half-life in Sprague-Dawley rat at 30 mg/kg, IM measured after 49 days by LC-MS/MS analysis; assay type: ADME, organism-based; conditions: in vivo, time 49 day
[4] = Drug concentration in BALB/cNj Foxn1nu/Gpt mouse tumor xenografted with human MCF-7/TAMR-1 cells at 2.4 mg, IM administered for 28 days; assay type: ADME, tissue-based, Neoplasm; conditions: time 28 day, read-out: Ct
[5] = Solubility of compound in long acting formulation containing ethanol, benzyl alcohol, benzyl benzoate and castor oil assessed as clear yellow oil solution at 33.69 mg incubated for 1 day by LC-MS/MS analysis; assay type: physicochemical; conditions: 24 h
[6] = Drug concentration in BALB/cNj Foxn1nu/Gpt mouse tumor xenografted with human MCF-7/TAMR-1 cells at 0.8 mg, IM administered for 28 days; assay type: ADME, tissue-based, Neoplasm; conditions: time 28 day, read-out: Ct
[7] = Apparent volume of distribution during terminal phase in Sprague-Dawley rat at 30 mg/kg, IM measured after 49 days by LC-MS/MS analysis; assay type: ADME, organism-based; conditions: in vivo, 1176 h, time 49 day
[8] = Tmax in Sprague-Dawley rat at 30 mg/kg, IM measured after 49 days by LC-MS/MS analysis; assay type: ADME, organism-based; conditions: in vivo, 1176 h, time 49 day
[9] = test system: MCF7; experiment: Induction of apoptosis in human MCF7 cells assessed as viable cells at 100 nM incubated for 24 hrs by Annexin V-FITC/PI staining based flow cytometric analysis (reference value: 93.5 %); assay type: functional; conditions: read-out: Activity
[10] = Drug concentration in BALB/cNj Foxn1nu/Gpt mouse plasma xenografted with human MCF-7/TAMR-1 cells at 0.8 mg, IM administered for 28 days; assay type: ADME, cell-free; conditions: time 28 day
[11] = Solubility of compound in long acting formulation containing ethanol, benzyl alcohol, benzyl benzoate and castor oil incubated for 1 days by LC-MS/MS analysis; assay type: physicochemical; conditions: 24 h; time 1 day
[12] = Metabolic stability in human liver microsomes assessed as parent compound remaining incubated for 60 mins in presence of NADPH by LC-MS/MS analysis; assay type: ADME, Microsome; conditions: read-out: Stability
[13] = AUClast in Sprague-Dawley rat at 30 mg/kg, IM measured after 49 days by LC-MS/MS analysis; assay type: ADME, organism-based; conditions: in vivo, 1176 h, time 49 day
[14] = Drug concentration in BALB/cNj Foxn1nu/Gpt mouse plasma xenografted with human MCF-7/TAMR-1 cells at 7.2 mg, IM administered for 28 days; assay type: ADME, cell-free; conditions: time 28 day
[15] = test system: MCF7; experiment: Induction of apoptosis in human MCF7 cells assessed as viable cells at 4 nM incubated for 24 hrs by Annexin V-FITC/PI staining based flow cytometric analysis (reference value: 93.5 %); assay type: functional; conditions: read-out: Activity
[16] = Drug concentration in BALB/cNj Foxn1nu/Gpt mouse plasma xenografted with human MCF-7/TAMR-1 cells at 2.4 mg, IM administered for 28 days; assay type: ADME, cell-free; conditions: time 28 day
[17] = Drug concentration in BALB/cNj Foxn1nu/Gpt mouse tumor xenografted with human MCF-7/TAMR-1 cells at 7.2 mg, IM administered for 28 days; assay type: ADME, tissue-based, Neoplasm; conditions: time 28 day, read-out: Ct
[18] = Solubility of compound in long acting formulation containing ethanol, benzyl alcohol, benzyl benzoate and castor oil at 57.27 mg incubated for 1 day by LC-MS/MS analysis; assay type: physicochemical; conditions: 24 h
[19] = test system: MCF7; experiment: Induction of apoptosis in human MCF7 cells assessed as viable cells at 20 nM incubated for 24 hrs by Annexin V-FITC/PI staining based flow cytometric analysis (reference value: 93.5 %); assay type: functional; conditions: read-out: Activity
[20] = Solubility of compound in long acting formulation containing ethanol, benzyl alcohol, benzyl benzoate and castor oil at 28.07 mg incubated for 1 day by LC-MS/MS analysis; assay type: physicochemical; conditions: 24 h
[21] = Metabolic stability in rat liver microsomes assessed as parent compound remaining incubated for 60 mins in presence of NADPH by LC-MS/MS analysis; assay type: ADME, Microsome; conditions: read-out: Stability
[22] = molecular target: T1, Estrogen receptor (Homo sapiens, UniProt P03372); experiment: Induction of Estrogen receptor degradation in wildtype human MCF7 cells assessed as reduction in estrogen receptor level incubated for 24 hrs by Western blot analysis; assay type: cell-based
T1 sequence (P03372 whole entry): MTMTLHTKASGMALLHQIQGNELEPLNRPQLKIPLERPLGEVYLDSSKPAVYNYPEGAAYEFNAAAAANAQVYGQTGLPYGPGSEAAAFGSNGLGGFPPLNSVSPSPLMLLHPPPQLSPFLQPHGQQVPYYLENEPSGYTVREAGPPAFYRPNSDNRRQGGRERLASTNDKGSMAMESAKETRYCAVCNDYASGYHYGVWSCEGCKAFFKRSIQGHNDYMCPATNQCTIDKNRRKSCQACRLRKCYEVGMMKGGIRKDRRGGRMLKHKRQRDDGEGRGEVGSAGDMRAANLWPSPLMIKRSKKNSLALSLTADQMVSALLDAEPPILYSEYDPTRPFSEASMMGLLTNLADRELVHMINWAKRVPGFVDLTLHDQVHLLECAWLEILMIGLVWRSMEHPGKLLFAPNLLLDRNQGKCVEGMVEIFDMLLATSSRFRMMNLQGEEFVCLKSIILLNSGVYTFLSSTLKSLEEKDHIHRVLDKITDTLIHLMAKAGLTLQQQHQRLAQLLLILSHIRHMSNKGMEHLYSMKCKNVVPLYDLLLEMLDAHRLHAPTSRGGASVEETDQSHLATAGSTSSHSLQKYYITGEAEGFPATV

[23] = test system: MCF7; experiment: Antiproliferative activity against wildtype human MCF7 cells assessed as inhibition of cell proliferation incubated for 6 days in presence of beta-estradiol by CellTiter-Glo assay; assay type: functional, cell-based; conditions: MCF7, 144 h
[24] = test system: Mus musculus; experiment: In vivo antagonist activity at Estrogen receptor in BALB/cNj Foxn1nu/Gpt mouse xenografted with human MCF-7/TAMR-1 cells assessed as reduction in ER level in tumor at 2.0 mg, IM administered for 28 days by Western blot analysis; assay type: functional; conditions: time 28.0 day
[25] = test system: Mus musculus; experiment: In vivo antagonist activity at Estrogen receptor in BALB/cNj Foxn1nu/Gpt mouse xenografted with human MCF-7/TAMR-1 cells assessed as reduction in PgR level in tumor at 2.0 mg, IM administered for 28 days by Western blot analysis; assay type: functional; conditions: time 28.0 day
[26] = AUClast in Sprague-Dawley rat at 25 mg/kg, IM measured after 49 days by LC-MS/MS analysis; assay type: ADME, organism-based; conditions: in vivo, 1176 h, time 49 day
[27] = Drug concentration in BALB/cNj Foxn1nu/Gpt mouse plasma xenografted with human MCF-7/TAMR-1 cells at 2.0 mg, IM administered for 28 days; assay type: ADME, cell-free; conditions: time 28 day
[28] = test system: T47D; experiment: Antiproliferative activity against human T47D cells transfected with wildtype ESR1 assessed as inhibition of cell proliferation incubated for 5 days by CellTiter-Glo assay; conditions: 120 h
[29] = molecular target: T2, Estrogen receptor (Homo sapiens) (UniProt P03372); conditions: T47D, time <= 48.0 hrs
T2 sequence (whole entry): T1 sequence (P03372 whole entry)

[30] = Half-life in Sprague-Dawley rat at 25 mg/kg, IM measured after 49 days by LC-MS/MS analysis; assay type: ADME, organism-based; conditions: in vivo, time 49 day
[31] = test system: T47D; experiment: Antiproliferative activity against human T47D cells transfected with ESR1 D538G mutant assessed as inhibition of cell proliferation incubated for 5 days by CellTiter-Glo assay; conditions: 120 h
[32] = Tmax in Sprague-Dawley rat at 25 mg/kg, IM measured after 49 days by LC-MS/MS analysis; assay type: ADME, organism-based; conditions: in vivo, time 49 day
[33] = Drug concentration in BALB/cNj Foxn1nu/Gpt mouse tumor xenografted with human MCF-7/TAMR-1 cells at 2.0 mg, IM administered for 28 days; assay type: ADME, tissue-based, Neoplasm; conditions: time 28 day, read-out: Ct
[34] = Apparent volume of distribution during terminal phase in Sprague-Dawley rat at 25 mg/kg, IM measured after 49 days by LC-MS/MS analysis; assay type: ADME, organism-based; conditions: in vivo, 1176 h, time 49 day
[35] = test system: T47D; experiment: Antiproliferative activity against human T47D cells transfected with ESR1 Y537S mutant assessed as inhibition of cell proliferation incubated for 5 days by CellTiter-Glo assay; conditions: 120 h
[36] = Cmax in Sprague-Dawley rat at 25 mg/kg, IM measured after 49 days by LC-MS/MS analysis; assay type: ADME, organism-based; conditions: in vivo, time 49 day
[37] = molecular target: T2, Estrogen receptor (Homo sapiens); conditions: MCF7, time <= 48.0 hrs
[38] = test system: MCF7; conditions: Homo sapiens, dose 4.0 nM, time 144.0 hrs
[39] = test system: Mus musculus; experiment: Invivo antagonist activity at Estrogen receptor in BALB/cNj Foxn1nu/Gpt mouse xenografted with human MCF-7/TAMR-1 cells assessed as single-layered cell phenotype of epithelial cells in uterus at 2.0 mg, IM administered for 28 days by H&E staining based analysis; assay type: functional; conditions: time 28.0 day
[40] = In vivo antagonist activity at Estrogen receptor in BALB/cNj Foxn1nu/Gpt mouse xenografted with human MCF-7/TAMR-1 cells assessed as fold reduction in uterus wet weight to body weight ratio at 2.0 mg, IM administered for 28 days; assay type: functional; conditions: time 28 day
[41] = MRT in Sprague-Dawley rat at 25 mg/kg, IM measured after 49 days by LC-MS/MS analysis; assay type: ADME, organism-based; conditions: in vivo, time 49 day
[42] = test system: T47D; experiment: Antiproliferative activity against human T47D cells assessed as inhibition of proliferation incubated for 6 days by CellTiter-Glo assay; conditions: 144 h

## C[C@@H]1Cc2c([nH]c3ccccc23)[C@@H](c2c(F)cc(NC3CN(CCCS(=O)(=O)CCCC(F)(F)C(F)(F)F)C3)cc2F)N1CC(F)(F)CO
[1]
  Cmax: 0.0415 µg/mL
[2]
  MRT: 15.6 days
[3]
  half-life: 14.7 days
[4]
  concentration at 672 h: 0.154 µg/mL
[5]
  solubility: Soluble
[6]
  concentration at 672 h: 0.0359 µg/mL
[7]
  Vz/F: 1658.37 L/kg
[8]
  Tmax: 14 days
[9]
  viability at 0.1 µM: 66.2%
[10]
  concentration at 672 h: 0.0149 µg/mL
[11]
  solubility: 95.1 mg/mL (≈ 131 mM)
[12]
  remaining at 1 h: 61%
[13]
  AUClast: 840.09 ng·days/mL
[14]
  concentration at 672 h: 0.0877 µg/mL
[15]
  viability at 0.004 µM: 82.7%
[16]
  concentration at 672 h: 0.0466 µg/mL
[17]
  concentration at 672 h: 0.252 µg/mL
[18]
  solubility: Insoluble
[19]
  viability at 0.02 µM: 70.5%
[20]
  solubility: Insoluble
[21]
  remaining at 1 h: 85.7%

## C[C@@H]1Cc2c([nH]c3ccccc23)[C@@H](c2c(F)cc(NC3CN(CC[S+]([O-])CCCC(F)(F)C(F)(F)F)C3)cc2F)N1CC(F)(F)F (stereo not given in full)
[12]
  remaining at 1 h: 43%
[21]
  remaining at 1 h: 71.6%

## C[C@@H]1Cc2c([nH]c3ccccc23)[C@@H](c2c(F)cc(NC3CN(CCC[S+]([O-])CCCC(F)(F)C(F)(F)F)C3)cc2F)N1CC(F)(F)F (stereo not given in full)
[22]
  DC50: 1.7 nM
[12]
  remaining at 1 h: 57.4%
[23]
  IC50: 2.7 nM
[21]
  remaining at 1 h: 93.7%

## C[C@]12CC[C@@H]3c4ccc(O)cc4C[C@@H](CCCCCCCCC[S+]([O-])CCCC(F)(F)C(F)(F)F)[C@H]3[C@@H]1CC[C@@H]2O (stereo not given in full) [FULVESTRANT]
[24]
  Activity: Active
[25]
  Activity: Active
[26]
  AUClast: 325.96 ng·days/mL
[27]
  concentration at 672 h: 0.0308 µg/mL
[28]
  IC50: 2.21 nM
[29]
  T1/2: 0.608 days
[30]
  half-life: 28.6 days
[31]
  IC50: 58.6 nM
[32]
  Tmax: 0.29 days
[33]
  concentration at 672 h: 0.0834 µg/mL
[11]
  solubility: 53.17 mg/mL (≈ 87.6 mM)
[12]
  remaining at 1 h: 13%
[34]
  Vz/F: 2158.67 L/kg
[35]
  IC50: 5.94 nM
[36]
  Cmax: 0.0367 µg/mL
[37]
  T1/2: 0.0542 days
[38]
  inhibition: Active
[39]
  Activity: Active
[40]
  fold change (FC): ~2
[41]
  MRT: 18.3 days
[23]
  IC50: 0.7 nM
[42]
  IC50: 2.3 nM
[21]
  remaining at 1 h: 9.6%
